Literature values, collected in patent US20200147085A1, “COMPOSITIONS AND METHODS FOR TREATMENT OF PSYCHIATRIC DISORDERS” (priority 2007, published 2020).

Experiments:
[1] = healthy controls, single oral dose of 400 mg of SAM
[2] = parenterally administered SAM
[3] = test system: healthy volunteers; settings: daily iv infusion for 7 days; not supine
[4] = rats, intraperitoneal
[5] = test system: schizophrenic patients; settings: 10-20 grams/day
[6] = test system: chronic renal failure patients; settings: 4 grams daily, with 5 mg folate and 50 mg pyridoxine daily; not fasting levels

Structure (SMILES): C[S+](CC[C@H](N)C(=O)O)C[C@H]1O[C@@H](n2cnc3c(N)ncnc32)[C@H](O)[C@@H]1O (stereo partly drawn) [SAM, S-adenosylmethionine]
- half-life of SAM [1]: 1.7 ± 0.3 h
- SAM levels in cerebral spinal fluid [2]: about 130 % of controls
- decrease in standing heart rate [3]: 6 beats/minute

Structure (SMILES): CSCC[C@H](N)C(=O)O [methionine, L-methionine]
- SAM in brain [4]: about 130 % of controls
- schizophrenic patients with worsened psychosis [5]: about 40%

Structure (SMILES): C[N+](C)(C)CC(=O)[O-] [betaine, trimethylglycine]
- decrease of post-methionine loading homocysteine levels [6]: 18%
